From patent US20230081986A1, “METHOD AND REAGENTS TO IMPROVE NONANIMAL OCULAR TOXICITY TESTS” (Lebrun Labs LLC, priority 2021, published 2023)
Where two headings read alike, the source gives them in different places.

Legend:
[1] = tested on: food-source rabbit eyes (cornea)
Procedure: (§1) Because of these modifications, we have updated our prediction model to include the metabolic test to identify reversible irritants or toxicity as shown in FIG. 3. For GHS (A) and EPA (B) classification systems, if the direct procedure (100 µL, washed after 1 minute exposure with 20 mL tear solution using a blunt end syringe 2-5 cm from cornea to create a laminar flow across the tissue) is negative, the metabolic result is used to confirm the negative result or identify reversible irritants or toxicity (GHS 2 or EPA II) if increased DoI is detected. […] For the GHS classification system, the NC is defined by no stromal DoI and a negative metabolic test.
Only food source eyes are suitable for this procedure.
3) Put the lid onto the 12 well plate(s) and place into the incubator (37° C., 5% CO2) for one hour.
3) Place an eye on the holder and carefully place a new cloning ring in the middle of the cornea without scratching it.
9) Start the timer for one minute.
10) After the one minute is over, remove the dosing ring and put in the proper container, and pick up the tissue without touching the cornea and hold it over the container for liquid waste.

[2] = tested on: food-source rabbit eyes (cornea); remark: listed apart in the source
Procedure: All of the steps of the META test are the same as the direct test except for the dosing step. For the META, 100 µL of tear solution (saline with ascorbic acid, protein) is first added to the dosing ring, followed by the addition of 100 µL of the material to be tested.
as §1
NOTE: The steps of the main procedure are the same as described above. The only deviations are described below and apply to the dosing of the corneas and interpretation of results. • 1) After the pre-incubation, remove the 12 well plate(s) from the incubator and place in the hood. • 2) Using a skinny sharpie, label the wells on the lid (water or specific chemical). • 3) Place an eye on the holder and carefully place a new cloning ring in the middle of the cornea without scratching it. • 4) Remove the needle from the syringe by twisting it off. Fill the syringe with 40 mL of 1x PBS by aliquoting it from the beaker. • 5) Put the needle back on the syringe by twisting on and remove the cap protecting the needle. Place the syringe flat on a sterile piece of foil. • 6) Obtain the timer. Add 100 uL of the T8 tear solution in the center of the dosing ring. Ensure the entire surface is covered. • 7) Retrieve 100 uL of the sample and aspirate in the center of the dosing ring, ensuring the entire surface is exposed.

[3] = tested on: rabbit eye (cornea, iris, and conjunctiva); settings: Lebrun et al., cited from earlier work; for in vivo EPA: EPA classification, 2020 / NICEATM, 2006; for in vivo GHS: GHS classification, 2020
[4] = tested on: food-source rabbit eyes (cornea); settings: for Prediction EPA: EPA prediction model from direct and metabolic results; for Prediction GHS: GHS prediction model from direct and metabolic results
Excerpt: FIG. 3 depicts the EPA and GHS prediction models. […] Meta. = Metabolic; GHS = Globally Harmonized System of Classification and Labeling of chemicals; EPA = Environmental Protection Agency; NC = Not Classified; * = Apical death of epithelium of at least 10%; must be a clear line of nuclei.
as §1

[5] = 100 µL, 1 minute exposure, tear solution wash, 24 hours organ culture
[6] = 6 minutes, 100 µL tear solution then 100 µL test material, run only where Direct was 0%

| Meta. (Metabolic) [2] | Molecule | Direct (depth of injury, stromal) [1, 5] [%] | Meta. (Metabolic) [2, 6] | Direct (depth of injury, stromal) ([1]; rabbit, 1 min) [%] | in vivo EPA [3] | in vivo GHS [3] | Prediction EPA [4] | Prediction GHS [4] |
| --- | --- | --- | --- | --- | --- | --- | --- | --- |
| – | OCCCCC(O)CO (stereo not shown) [1,2,6-Hexanetriol] | 0.0 | Neg. | – | – | – | – | – |
| – | BrCCCCCCBr [1,6-Dibromohexane] | 0.0 | Neg. | – | – | – | – | – |
| – | CCC(C)(C)C(=O)O [2,2-Dimethyl butanoic acid] | – | – | 27.4 | I (I (corrosive, lesions are not reversed within 21 days)) | 1 (1 (extreme and/or irreversible irritation effects that are not reversed within 21 days)) | – | – |
| Neg. | CC(O)CC(C)O (stereo not shown) [2,4-Pentanediol] | – | – | 0.0 | – | – | – | – |
| – | O=C(Cl)c1c(Cl)cccc1Cl [2,6-Dichlorobenzoyl chloride] | 0.0 | Pos. | – | II (II (damage is reversed within 21 days of exposure)) | 2A (2 A, irritation effects are reversed within 21 days) | II (category II includes damage greater than 15% but less than 25% (or is positive for cell death by the metabolic test)) | 2 (Category 2 is identified by any stromal DoI up to 18% or a positive metabolic test) |
| – | CCOC(=O)C(C)(C)O [2-Hydroxy isobutyric acid ethyl ester] | – | – | 42.3 | *I^2 (I (corrosive, lesions are not reversed within 21 days)) | 1 (1 (extreme and/or irreversible irritation effects that are not reversed within 21 days)) | – | – |
| – | CCCC(C)CO (stereo not shown) [2-Methyl-1-pentanol] | – | – | 5.7 | III (III (damage is reversed within 7 days of exposure)) | 2B (2 B, within 7 days) | III (category III includes damage to the epithelium of the stroma up to 15%) | – |
| – | N#CCCCl [3-Chloropropionitrile] | 12.0 | – | – | III (III (damage is reversed within 7 days of exposure)) | 2B (2 B, within 7 days) | III (category III includes damage to the epithelium of the stroma up to 15%) | 2 (Category 2 is identified by any stromal DoI up to 18% or a positive metabolic test) |
| – | COCC(O)CO (stereo not shown) [3-Methoxy-1,2-propanediol] | 0.0 | Neg. | – | – | – | – | – |
| – | CC(=O)O [Acetic Acid (10%), Acetic Acid] | – | – | – | I (I (corrosive, lesions are not reversed within 21 days)) | 1 (1 (extreme and/or irreversible irritation effects that are not reversed within 21 days)) | – | – |
| – | CC(C)=O [Acetone] | 0.0 | Pos. | – | II (II (damage is reversed within 21 days of exposure)) | 2A (2 A, irritation effects are reversed within 21 days) | II (category II includes damage greater than 15% but less than 25% (or is positive for cell death by the metabolic test)) | 2 (Category 2 is identified by any stromal DoI up to 18% or a positive metabolic test) |
| – | O=S(=O)(Cl)c1ccccc1 [Benzenesulphonylchloride] | 52.8 | – | – | *I^2 (I (corrosive, lesions are not reversed within 21 days)) | 1 (1 (extreme and/or irreversible irritation effects that are not reversed within 21 days)) | I (category I includes damage greater than 25%) | 1 (GHS category 1 is defined as stromal damage of 18% or greater) |
| – | OC1CCCCC1 [Cyclohexanol] | 29.6 | – | – | I (I (corrosive, lesions are not reversed within 21 days)) | 1 (1 (extreme and/or irreversible irritation effects that are not reversed within 21 days)) | I (category I includes damage greater than 25%) | 1 (GHS category 1 is defined as stromal damage of 18% or greater) |
| – | OC1CCCC1 [Cyclopentanol] | 30.4 | – | – | II (II (damage is reversed within 21 days of exposure)) | 2B (2 B, within 7 days) | I (category I includes damage greater than 25%) | 1 (GHS category 1 is defined as stromal damage of 18% or greater) |
| – | CC(C)CC(=O)CC(C)C [Di-iso-butyl ketone] | – | – | 0.0 | – | – | – | – |
| Neg. | CCCCCCCCOCCCCCCCC [Dioctyl ether] | – | – | 0.0 | – | – | – | – |

| Meta. (Metabolic) [2] | Molecule | Direct (depth of injury, stromal) [1, 5] [%] | Meta. (Metabolic) [2, 6] | Direct (depth of injury, stromal) ([1]; rabbit, 1 min) [%] | in vivo EPA [3] | in vivo GHS [3] | Prediction EPA [4] | Prediction GHS [4] |
| --- | --- | --- | --- | --- | --- | --- | --- | --- |
| – | OCC(O)CO [Glycerol] | – | – | 0.0 | – | – | – | – |
| – | C[Si](C)(C)O[Si](C)(C)C [Hexamethyldisiloxane] | 0.0 | Neg. | – | – | – | – | – |
| – | CCCCCC [Hexane] | 0.0 | Neg. | – | – | – | – | – |
| – | C=CC(=O)OCCO [Hydroxyethyl acrylate] | 100.0 | – | – | – | – | – | 1 (GHS category 1 is defined as stromal damage of 18% or greater) |
| Pos. | CC(=O)CC(=O)OC(C)C [Isopropyl acetoacetate] | – | – | 0.0 | III (III (damage is reversed within 7 days of exposure)) | 2B (2 B, within 7 days) | – | – |
| – | CC(O)C(=O)O (stereo not shown) [Lactic acid] | – | – | 100.0 | I (I (corrosive, lesions are not reversed within 21 days)) | 1 (1 (extreme and/or irreversible irritation effects that are not reversed within 21 days)) | I (category I includes damage greater than 25%) | – |
| – | COC(C)=O [Methyl acetate] | – | – | 24.0 | II (II (damage is reversed within 21 days of exposure)) | 2A (2 A, irritation effects are reversed within 21 days) | – | – |
| – | CCCCCC(C)=O [Methyl amyl ketone] | 6.0 | – | – | III (III (damage is reversed within 7 days of exposure)) | – | III (category III includes damage to the epithelium of the stroma up to 15%) | 2 (Category 2 is identified by any stromal DoI up to 18% or a positive metabolic test) |
| – | CCCOCC(C)O (stereo not shown) [Propasol solvent P] | 18.3 | – | – | II (II (damage is reversed within 21 days of exposure)) | 2A (2 A, irritation effects are reversed within 21 days) | II (category II includes damage greater than 15% but less than 25% (or is positive for cell death by the metabolic test)) | 1 (GHS category 1 is defined as stromal damage of 18% or greater) |
| Neg. | CC(O)CO (stereo not shown) [Propylene glycol] | – | – | 0.0 | – | – | – | – |
| – | Cc1ccccc1 [Toluene] | 50.1 | – | – | – | – | – | 1 (GHS category 1 is defined as stromal damage of 18% or greater) |
| – | C=CC(=O)OCCCCCC(C)C [iso-Octyl acrylate] | 0.0 | – | – | – | – | – | – |
| – | CC(C)CCCCCOC(=O)CS [iso-Octylthioglycolate] | 0.0 | Neg. | – | – | – | – | – |
| – | CCCCCCCCBr [n-Octyl bromide] | 0.0 | – | – | – | – | – | – |
| – | CCC(C)c1ccccc1 (stereo not shown) [sec-Butylbenzene] | 0.0 | Neg. | – | – | – | – | – |
| – | Diethylaminopropionitrile | 56.8 | – | – | II (II (damage is reversed within 21 days of exposure)) | 1 (1 (extreme and/or irreversible irritation effects that are not reversed within 21 days)) | II (category II includes damage greater than 15% but less than 25% (or is positive for cell death by the metabolic test)) | 1 (GHS category 1 is defined as stromal damage of 18% or greater) |
